Data on nine molecules can be found in patent US10519150B2, “Salts of morpholine derivative, crystal forms thereof, processes for producing the same, pharmaceutical compositions including the same, and use thereof” (SHANGHAI PHARMACEUTICALS HOLDING CO., LTD., priority 2015, dated 2019).

A short description of data set [1]: Hygroscopicity test (weight change as humidity increased from 20% to 80%). The class given is physicochemical. To be noted: for Weight change in 20%-80% humidity: 5 mg sample, humidity increased from 20% to 80%; for Level (hygroscopicity): 20%-80% humidity. As to the method:
5 mg of each of the salts of the morpholine derivative in the examples was measured for their weight change as the humidity was increased from 20% to 80%.

Data set [2] can be described thus: Solubility test in pure water. To be noted: for Solubility: pure water, 25° C., 5 mg sample; for water solubility: summary statement in description. In kind it is physicochemical. As to the method: 5 mg of each of the free base and salts of the morpholine derivative in Examples 1-7 was added with pure water gradually at 25° C., until all the samples were completely dissolved. The solubility of each sample was calculated based on the actual weight of the sample and the amount of water.

A short description of data set [3]: Dynamic Vapor Sorption Analysis (DVS). Particulars: for hygroscopicity in words: text statement. In kind it is physicochemical. As to the method: Dynamic Vapor Sorption Analysis (DVS) data was taken from a TA Instruments Q5000 TGA, instrument control software was Thermal Advantage, and analysis software was Universal Analysis. Generally, 1 to 10 mg of the sample was placed in a platinum crucible, the TA software generally recorded the weight change of the sample as the relative humidity changed from 0% to 80% to 0%. According to the specific conditions of the sample, different adsorption and desorption steps might also be applied to the sample.

The conditions of data set [4]: background statement on prior-art free base; cited from earlier work.
The nature of data set [5]: Stability test under oxidation condition. In kind it is physicochemical. To be noted: for Types of new impurities (type) / The decomposed amount (%): closed container with hydrogen peroxide urea, 40° C., 12 days; for The decomposed amount (%): chiral HPLC vs day 0; for stability under oxidation condition in words: text statement. As to the method: The stability test was conducted on 10 mg of each of the free base and salts of the morpholine derivative in the examples under oxidation condition.

For data set [6] the following is noted: background statement on prior-art free base; cited from earlier work. The source holds these as a separate data set.
Data set [7] can be described thus: Stability test under light condition. Particulars: for The decomposed amount (%): light box 4500 Lx ± 500 Lx, 25° C., 12 days, chiral HPLC vs day 0; for stability under light condition in words: text statement. The class given is physicochemical. As for the experimental part:
The stability test was carried out on 10 mg of each of the free base, salts of the morpholine derivative in Examples 1-6 under light condition.

Entries after “also recorded” stand apart in the source; their conditions may differ. Structures can show the parent of a compound that is named as a salt.

For orientation: Solubility means the concentration that dissolves in the medium under given conditions. A lower Solubility goes with a poorly soluble substance. As to `COC(=O)NCCCn1nc([C@@H](C)N(C(=O)[C@H]2CNCCO2)C2CC2)c2ccc(C)nc21` [morpholine derivative tartrate dihydrate], in data set [1], the “Weight change in 20%-80% humidity” value is given as 9.05% and the “Level (hygroscopicity)” value is “easy”. Also, in data set [2], the Solubility came out at 100 mg/mL. For the same molecule, the “DVS weight change in a range of 0%-80% humidity” value in data set [3] (0%-80% humidity) is “about 11.06%”. In addition, the hygroscopicity in words result in data set [3] is recorded as “relatively hydroscopic”.

Take `COC(=O)NCCCn1nc([C@@H](C)N(C(=O)[C@H]2CNCCO2)C2CC2)c2ccc(C)nc21` [morpholine derivative free base, methyl (3-(3-((R)-1-((R)—N-cyclopropylmorpholine-2-carboxamido)ethyl)-6-methyl-1H-pyrazolo[3,4-b]pyridin-1-yl)n-propyl)carbamate, reference compound]: the “Level (hygroscopicity)” value in data set [1] is “difficult”. The same molecule gave a Solubility in data set [2] of 5 to 10 mg/mL. The “oxidation stability in words” value in data set [4] is “relatively easy to be oxidized”. Moreover, in data set [5], the “Types of new impurities (type)” value is given as 6 type and the “The decomposed amount (%)” value was 38.0%. For the same molecule, the “water solubility in words” value in data set [6] was “poor water solubility”. Further, the “The decomposed amount (%)” value in data set [7] is given as 100%.

For `COC(=O)NCCCn1nc([C@@H](C)N(C(=O)[C@H]2CNCCO2)C2CC2)c2ccc(C)nc21` [morpholine derivative tartrate crystal form B], in data set [1], the “Weight change in 20%-80% humidity” value is on record as 6.58% and the “Level (hygroscopicity)” value was “easy”. Also, the Solubility in data set [2] lay within 150 to 300 mg/mL. In data set [5], the “Types of new impurities (type)” value was determined as 4 type and the “The decomposed amount (%)” value is listed as 3.24%. For the same molecule, the “stability under oxidation condition in words” value in data set [5] (listed as crystal form B) is reported as “more stable than crystal form A”. In data set [3], the “DVS weight change in a range of 20%-80% humidity” value is listed as “about 7%” and the hygroscopicity in words result is reported as “relatively hydroscopic”. In data set [3] (listed as crystal form B), the hygroscopicity in words result was “relatively hydroscopic”. In addition, the “The decomposed amount (%)” value in data set [7] is reported as 3.61%. Also, the “stability under light condition in words” value in data set [7] (listed as crystal form B) is recorded as “equivalent stability”.

With `COC(=O)NCCCn1nc([C@@H](C)N(C(=O)[C@H]2CNCCO2)C2CC2)c2ccc(C)nc21` [morpholine derivative hydrochloride], in data set [1], the “Weight change in 20%-80% humidity” value turned out to be 31.80% and the “Level (hygroscopicity)” value was “Very easy”. In data set [2], the Solubility is more than 500 mg/mL and the water solubility is on record as more than 500 mg/mL. Besides, in data set [5], the “Types of new impurities (type)” value amounted to 6 type and the “The decomposed amount (%)” value worked out at 63.53%. The “DVS water absorbed in 0% to 60% RH” value in data set [3] (0% to 60% RH) came out at 15%. Moreover, the hygroscopicity in words result in data set [3] was “deliquescent; also recorded: very hydroscopic”. In data set [7], the “The decomposed amount (%)” value was 5.27% and the “stability under light condition in words” value is on record as “good thermal stability”.

`COC(=O)NCCCn1nc([C@@H](C)N(C(=O)[C@H]2CNCCO2)C2CC2)c2ccc(C)nc21` [morpholine derivative tartrate]: in data set [2], the water solubility fell in the range of 50 to 300 mg/mL.

For `COC(=O)NCCCn1nc([C@@H](C)N(C(=O)[C@H]2CNCCO2)C2CC2)c2ccc(C)nc21` [morpholine derivative acetate], the “Weight change in 20%-80% humidity” value in data set [1] was found to be 21.30%. Also, in data set [2], the Solubility fell in the range of 150 to 300 mg/mL and the water solubility fell in the range of 150 to 300 mg/mL. In addition, in data set [5], the “Types of new impurities (type)” value stood at 5 type and the “The decomposed amount (%)” value is given as 95.71%. Also, the “DVS weight loss during the drying stage” value in data set [3] (0% of the initial humidity) is “about 5%”. In data set [3] (20% to 60% humidity), the “DVS moisture absorbed, amount of its weight” value was 6.4%. In addition, in data set [3] (90% of humidity), the “DVS moisture absorbed, amount of its weight” value worked out at 40%. Further, in data set [3], the hygroscopicity in words entry is “deliquesced”. Besides, the “stability under light condition in words” value in data set [7] is given as “good thermal stability”.

With `COC(=O)NCCCn1nc([C@@H](C)N(C(=O)[C@H]2CNCCO2)C2CC2)c2ccc(C)nc21` [morpholine derivative tartrate crystal form A], in data set [1], the “Weight change in 20%-80% humidity” value is reported as 1.50% and the “Level (hygroscopicity)” value is recorded as “difficult”. Besides, the Solubility in data set [2] worked out at 100 mg/mL. In data set [5], the “Types of new impurities (type)” value came out at 6 type and the “The decomposed amount (%)” value came to 17.93%. In data set [3], the “DVS weight change in a range of 20%-80% humidity” value is on record as “about 1.5%” and the hygroscopicity in words entry is listed as “hardly hydroscopic”. In addition, in data set [3] (listed as crystal form A), the hygroscopicity in words entry is on record as “hardly hydroscopic”. Further, the “The decomposed amount (%)” value in data set [7] came to 2.14%. Besides, the “stability under light condition in words” value in data set [7] (listed as crystal form A) is “equivalent stability”.

On to `COC(=O)NCCCn1nc([C@@H](C)N(C(=O)[C@H]2CNCCO2)C2CC2)c2ccc(C)nc21` [morpholine derivative naphthalene disulfonate], for which, in data set [1], the “Level (hygroscopicity)” value was “Very easy”. Further, in data set [2], the Solubility is more than 500 mg/mL and the water solubility was more than 500 mg/mL. Further, in data set [5], the “Types of new impurities (type)” value was found to be 7 type and the “The decomposed amount (%)” value was found to be 51.47%. Moreover, the hygroscopicity in words entry in data set [3] was “very hydroscopic”. Further, in data set [7], the “The decomposed amount (%)” value amounted to 12.58% and the “stability under light condition in words” value is listed as “good thermal stability”.

`COC(=O)NCCCn1nc([C@@H](C)N(C(=O)[C@H]2CNCCO2)C2CC2)c2ccc(C)nc21` [morpholine derivative malate]: the “Weight change in 20%-80% humidity” value in data set [1] turned out to be 1.70%. In addition, in data set [2], the Solubility came out at 100 mg/mL and the water solubility is recorded as approximately 100 mg/mL. Moreover, in data set [5], the “Types of new impurities (type)” value is reported as 2 type, the “The decomposed amount (%)” value worked out at 8.46% and the “stability under oxidation condition in words” value is given as “better stability”. In addition, in data set [3], the “DVS weight change in a range of 20%-80% humidity” value is reported as “about 1.2%”. In data set [7], the “The decomposed amount (%)” value is 2.05% and the “stability under light condition in words” value is on record as “better stability”.
